Test results taken from ChEMBL document CHEMBL1150089, “Sodwanones G, H, and I, new cytotoxic triterpenes from a marine sponge” (J Nat Prod, 1995).

What was measured:
Format in all cases: functional, cell-based
A549 = test: Cytotoxicity against human A549 cells after 3 days; conditions: A549, 72 h
HT-29 = test: Cytotoxicity against human HT-29 cells after 3 days; conditions: HT-29, 72 h
SK-MEL-28 = test: Cytotoxicity against human SK-MEL-28 cells after 3 days; conditions: SK-MEL-28, 72 h
P388 = test: Cytotoxicity against mouse P388 cells after 3 days; conditions: P388, 72 h

For `CC1=C(CC[C@@H]2[C@@]3(CC[C@@H]4OC(C)(C)C(=O)CC[C@]42C)CO3)[C@@]2(C)CCC(=O)C(C)(C)C2=C(O)C1=O` [SODWANONE G], the IC50 (A549) was 0.2 µM, the IC50 (HT-29) was 2 µM and the IC50 (SK-MEL-28) was 2 µM. For the same compound, the IC50 (P388) was 2 µM.

With `CC1=C(CC[C@@H]2[C@H](C)CC[C@@H]3OC(C)(C)C(=O)CC[C@]32C)[C@@]2(C)CC[C@@H](O)C(C)(C)[C@@H]2CC1=O` [SODWANONE H] the IC50 (A549) was 0.02 µM, the IC50 (HT-29) was 10.5 µM and the IC50 (SK-MEL-28) was 10.5 µM. It also gave an IC50 (P388) of 10.5 µM.

`CC(C)C(=O)CC[C@@]1(C)[C@H]2CC[C@H](C)[C@]1(CC[C@@]1(C)[C@@H](C)CC[C@@H]3OC(C)(C)[C@]4(O)CC[C@@]31O4)O2` [SODWANONE I] showed an IC50 (A549) of 20 µM, an IC50 (HT-29) of 20 µM and an IC50 (SK-MEL-28) of 20 µM. For the same compound, the IC50 (P388) was 20 µM.
